Measured values taken from US9833497B2, “Human originated EGF domain proteins and use of the same” (CHENGDU SOURCEBIO LIMITED-LIABILITY COMPANY, priority 2013, dated 2017).

Legend:
Assay type in all cases: cell-based
Moraxella catarrhalis = test: MIC against Gram-negative bacteria: Moraxella catarrhalis; conditions: 5×10^5 CFU/mL
Outline: (§1)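 Inocula prepared by growing LB cultures at 37° C to 0.5 McFarland, centrifuging at 4000×g, and resuspending in fresh medium. Final density 5×10^5 CFU/mL per well with two-fold dilutions of purified EGF domain protein; shaking incubation at 37° C.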

E. coli BL21 = test: MIC against Gram-negative bacteria: E. coli BL21; conditions: 5×10^5 CFU/mL
Outline: as §1

Serratia marcescens = test: MIC against Gram-negative bacteria: Serratia marcescens; conditions: 5×10^5 CFU/mL
Outline: as §1

Proteus mirabilis = test: MIC against Gram-negative bacteria: Proteus mirabilis; conditions: 5×10^5 CFU/mL
Outline: as §1

Aeromonas hydrophila = test: MIC against Gram-negative bacteria: Aeromonas hydrophila; conditions: 5×10^5 CFU/mL
Outline: as §1

Pseudomonas aeruginosa = test: MIC against Gram-negative bacteria: Pseudomonas aeruginosa; conditions: 5×10^5 CFU/mL
Outline: as §1

Citrobacter diversus = test: MIC against Gram-negative bacteria: Citrobacter diversus; conditions: 5×10^5 CFU/mL
Outline: as §1

Klebsiella pneumonia = test: MIC against Gram-negative bacteria: Klebsiella pneumonia; conditions: 5×10^5 CFU/mL
Outline: as §1

Proteus vulgaris = test: MIC against Gram-negative bacteria: Proteus vulgaris; conditions: 5×10^5 CFU/mL
Outline: as §1

E. coli DH5α = test: Antibacterial activity: MIC and growth curve against E. coli DH5α in 96-well plate; conditions: minimal inhibitory concentration against E. coli DH5α; 96-well plate, 5×10^5 CFU/mL, 37° C., judged after 8 h
Outline: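 Log-phase bacteria (OD600 ~0.5) resuspended in LB at 5×10^5 CFU/mL, exposed to recombinant protein at 50, 25, 12.5 μg/mL final in triplicate, 37 °C shaking at 175 rpm. OD600 read every 30 min; MIC is lowest concentration showing no growth.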

Enterobacter cloacae = test: MIC against Gram-negative bacteria: Enterobacter cloacae; conditions: 5×10^5 CFU/mL
Outline: as §1

[1] = Moraxella catarrhalis, 96-well plate, 37° C., 10 h
[2] = E. coli BL21, 96-well plate, 37° C., 10 h
[3] = Serratia marcescens, 96-well plate, 37° C., 10 h
[4] = Proteus mirabilis, 96-well plate, 37° C., 10 h
[5] = Aeromonas hydrophila, 96-well plate, 37° C., 10 h
[6] = Pseudomonas aeruginosa, 96-well plate, 37° C., 10 h
[7] = Citrobacter diversus, 96-well plate, 37° C., 10 h
[8] = Klebsiella pneumonia, 96-well plate, 37° C., 10 h
[9] = Proteus vulgaris, 96-well plate, 37° C., 10 h
[10] = Enterobacter cloacae, 96-well plate, 37° C., 10 h
[11] = E. coli BL21, 10 h cultivation at 37° C.
[12] = 10 h cultivation at 37° C., two-fold serial dilution

## PRT1246 (CKELCSCHPHGQCEDVTGQCTCHARRWGARCE; listed as Homo sapiens)
Moraxella catarrhalis; [1]
  MIC against M. catarrhalis: 25 µg/mL
E. coli BL21; [2]
  MIC against E. coli BL21: 25 µg/mL
Serratia marcescens; [3]
  MIC against S. marcescens: 12.5 µg/mL
Proteus mirabilis; [4]
  MIC against P. mirabilis: 50 µg/mL
Aeromonas hydrophila; [5]
  MIC against A. hydrophila: 25 µg/mL
Pseudomonas aeruginosa; [6]
  MIC against P. aeruginosa: 12.5 µg/mL
Citrobacter diversus; [7]
  MIC against C. diversus: 12.5 µg/mL
Klebsiella pneumonia; [8]
  MIC against K. pneumonia: 25 µg/mL
Proteus vulgaris; [9]
  MIC against P. vulgaris: 25 µg/mL
E. coli DH5α
  MIC: 50 µg/mL
Enterobacter cloacae; [10]
  MIC against E. cloacae: 50 µg/mL

## PRT451 (SFYCSCRPGYKLMSDKRTCVDIDE; listed as Homo sapiens)
Moraxella catarrhalis; 96-well plate, 37° C., 10 h
  MIC against M. catarrhalis: 50 µg/mL
E. coli BL21; 96-well plate, 37° C., 10 h
  MIC against E. coli BL21: 50 µg/mL
Serratia marcescens; 96-well plate, 37° C., 10 h
  MIC against S. marcescens: 12.5 µg/mL
Proteus mirabilis; 96-well plate, 37° C., 10 h
  MIC against P. mirabilis: 12.5 µg/mL
Aeromonas hydrophila; 96-well plate, 37° C., 10 h
  MIC against A. hydrophila: 50 µg/mL
Pseudomonas aeruginosa; 96-well plate, 37° C., 10 h
  MIC against P. aeruginosa: 25 µg/mL
Citrobacter diversus; 96-well plate, 37° C., 10 h
  MIC against C. diversus: 12.5 µg/mL
Klebsiella pneumonia; 96-well plate, 37° C., 10 h
  MIC against K. pneumonia: 12.5 µg/mL
Proteus vulgaris; 96-well plate, 37° C., 10 h
  MIC against P. vulgaris: 50 µg/mL
E. coli DH5α
  MIC: 25 µg/mL
Enterobacter cloacae; 96-well plate, 37° C., 10 h
  MIC against E. cloacae: 25 µg/mL

## PRT696 (DVDECTQSPGLCGRGACKNLPGSFRCVCPAGFRGSACE; listed as Homo sapiens)
Moraxella catarrhalis; 96-well plate, 37° C., 10 h
  MIC M. catarrhalis: 25 µg/mL
E. coli BL21; 96-well plate, 37° C., 10 h
  MIC E. coli BL21: 25 µg/mL
Serratia marcescens; 96-well plate, 37° C., 10 h
  MIC S. marcescens: 12.5 µg/mL
Proteus mirabilis; 96-well plate, 37° C., 10 h
  MIC P. mirabilis: 50 µg/mL
Aeromonas hydrophila; 96-well plate, 37° C., 10 h
  MIC A. hydrophila: 12.5 µg/mL
Pseudomonas aeruginosa; 96-well plate, 37° C., 10 h
  MIC P. aeruginosa: 12.5 µg/mL
Citrobacter diversus; 96-well plate, 37° C., 10 h
  MIC C. diversus: 25 µg/mL
Klebsiella pneumonia; 96-well plate, 37° C., 10 h
  MIC K. pneumonia: 50 µg/mL
Proteus vulgaris; 96-well plate, 37° C., 10 h
  MIC P. vulgaris: 25 µg/mL
E. coli DH5α
  MIC: 50 µg/mL
Enterobacter cloacae; 96-well plate, 37° C., 10 h
  MIC E. cloacae: 25 µg/mL

## PRT1284 (LVDLCSPDLNPCQHEAQCVGTPDGPRCECMPGYAGDNCS; listed as Homo sapiens)
Moraxella catarrhalis; [1]
  MIC against M. catarrhalis: 50 µg/mL
E. coli BL21; [2]
  MIC against E. coli BL21: 50 µg/mL
Serratia marcescens; [3]
  MIC against S. marcescens: 12.5 µg/mL
Proteus mirabilis; [4]
  MIC against P. mirabilis: 12.5 µg/mL
Aeromonas hydrophila; [5]
  MIC against A. hydrophila: 12.5 µg/mL
Pseudomonas aeruginosa; [6]
  MIC against P. aeruginosa: 25 µg/mL
Citrobacter diversus; [7]
  MIC against C. diversus: 12.5 µg/mL
Klebsiella pneumonia; [8]
  MIC against K. pneumonia: 12.5 µg/mL
Proteus vulgaris; [9]
  MIC against P. vulgaris: 25 µg/mL
E. coli DH5α
  MIC: 25 µg/mL
Enterobacter cloacae; [10]
  MIC against E. cloacae: 25 µg/mL

## PRT253 (DYCSQNTCLNGGKCSWTHGAGYVCKCPPQFSGKHCE; listed as Homo sapiens)
Moraxella catarrhalis; M. catarrhalis, 10 h cultivation at 37° C.
  MIC (μg/mL) M. catarrhalis: 25 µg/mL
E. coli BL21; [11]
  MIC (μg/mL) E. coli BL21: 25 µg/mL
Serratia marcescens; S. marcescens, 10 h cultivation at 37° C.
  MIC (μg/mL) S. marcescens: 12.5 µg/mL
Proteus mirabilis; P. mirabilis, 10 h cultivation at 37° C.
  MIC (μg/mL) P. mirabilis: 12.5 µg/mL
Aeromonas hydrophila; A. hydrophila, 10 h cultivation at 37° C.
  MIC (μg/mL) A. hydrophila: 25 µg/mL
Pseudomonas aeruginosa; P. aeruginosa, 10 h cultivation at 37° C.
  MIC (μg/mL) P. aeruginosa: 12.5 µg/mL
Citrobacter diversus; C. diversus, 10 h cultivation at 37° C.
  MIC (μg/mL) C. diversus: 12.5 µg/mL
Klebsiella pneumonia; K. pneumonia, 10 h cultivation at 37° C.
  MIC (μg/mL) K. pneumonia: 25 µg/mL
Proteus vulgaris; P. vulgaris, 10 h cultivation at 37° C.
  MIC (μg/mL) P. vulgaris: 25 µg/mL
E. coli DH5α
  MIC: 12.5 µg/mL
Enterobacter cloacae; E. cloacae, 10 h cultivation at 37° C.
  MIC (μg/mL) E. cloacae: 12.5 µg/mL

## PRT84 (EAGRCVPGVCRNGGTCTDAPNGGFRCQCPAGGAFEGPRCE; listed as Homo sapiens)
Moraxella catarrhalis; [1]
  MIC (μg/mL) M. catarrhalis: 25 µg/mL
E. coli BL21; [2]
  MIC (μg/mL) E. coli BL21: 25 µg/mL
Serratia marcescens; [3]
  MIC (μg/mL) S. marcescens: 12.5 µg/mL
Proteus mirabilis; [4]
  MIC (μg/mL) P. mirabilis: 12.5 µg/mL
Aeromonas hydrophila; [5]
  MIC (μg/mL) A. hydrophila: 25 µg/mL
Pseudomonas aeruginosa; [6]
  MIC (μg/mL) P. aeruginosa: 12.5 µg/mL
Citrobacter diversus; [7]
  MIC (μg/mL) C. diversus: 12.5 µg/mL
Klebsiella pneumonia; [8]
  MIC (μg/mL) K. pneumonia: 25 µg/mL
Proteus vulgaris; [9]
  MIC (μg/mL) P. vulgaris: 25 µg/mL
E. coli DH5α
  MIC: 12.5 µg/mL
Enterobacter cloacae; [10]
  MIC (μg/mL) E. cloacae: 12.5 µg/mL

## PRT1493 (QQAECPGGCRNGGFCNERRICECPDGFHGPHCE; listed as Homo sapiens)
Moraxella catarrhalis; Moraxella catarrhalis, 10 h cultivation at 37° C.
  MIC against M. catarrhalis: 25 µg/mL
E. coli BL21; [11]
  MIC against E. coli BL21: 25 µg/mL
Serratia marcescens; Serratia marcescens, 10 h cultivation at 37° C.
  MIC against S. marcescens: 50 µg/mL
Proteus mirabilis; Proteus mirabilis, 10 h cultivation at 37° C.
  MIC against P. mirabilis: 50 µg/mL
Aeromonas hydrophila; Aeromonas hydrophila, 10 h cultivation at 37° C.
  MIC against A. hydrophila: 50 µg/mL
Pseudomonas aeruginosa; Pseudomonas aeruginosa, 10 h cultivation at 37° C.
  MIC against P. aeruginosa: 12.5 µg/mL
Citrobacter diversus; Citrobacter diversus, 10 h cultivation at 37° C.
  MIC against C. diversus: 50 µg/mL
Klebsiella pneumonia; Klebsiella pneumonia, 10 h cultivation at 37° C.
  MIC against K. pneumonia: 12.5 µg/mL
Proteus vulgaris; Proteus vulgaris, 10 h cultivation at 37° C.
  MIC against P. vulgaris: 25 µg/mL
E. coli DH5α
  MIC: 100 µg/mL
Enterobacter cloacae; Enterobacter cloacae, 10 h cultivation at 37° C.
  MIC against E. cloacae: 12.5 µg/mL

## PRT1061 (KRDPCLRKYKDFCIHGECKYVKELRAPSCICHPGYHGERCH; listed as Homo sapiens)
Moraxella catarrhalis; [12]
  MIC M. catarrhalis: 50 µg/mL
E. coli BL21; [12]
  MIC E. coli BL21: 12.5 µg/mL
Serratia marcescens; [12]
  MIC S. marcescens: 25 µg/mL
Proteus mirabilis; [12]
  MIC P. mirabilis: 25 µg/mL
Aeromonas hydrophila; [12]
  MIC A. hydrophila: 12.5 µg/mL
Pseudomonas aeruginosa; [12]
  MIC P. aeruginosa: 12.5 µg/mL
Citrobacter diversus; [12]
  MIC C. diversus: 12.5 µg/mL
Klebsiella pneumonia; [12]
  MIC K. pneumonia: 12.5 µg/mL
Proteus vulgaris; [12]
  MIC P. vulgaris: 12.5 µg/mL
E. coli DH5α
  MIC: 12.5 µg/mL
Enterobacter cloacae; [12]
  MIC E. cloacae: 12.5 µg/mL

## PRT475 (VQNTCKDNPCGRGQCLITQSPPYYRCVCKHPYTGPSCS; listed as Homo sapiens)
Moraxella catarrhalis; 96-well plate, 37° C., 10 h
  MIC against M. catarrhalis: 12.5 µg/mL
E. coli BL21; 96-well plate, 37° C., 10 h
  MIC against E. coli BL21: 12.5 µg/mL
Serratia marcescens; 96-well plate, 37° C., 10 h
  MIC against S. marcescens: 50 µg/mL
Proteus mirabilis; 96-well plate, 37° C., 10 h
  MIC against P. mirabilis: 50 µg/mL
Aeromonas hydrophila; 96-well plate, 37° C., 10 h
  MIC against A. hydrophila: 25 µg/mL
Pseudomonas aeruginosa; 96-well plate, 37° C., 10 h
  MIC against P. aeruginosa: 50 µg/mL
Citrobacter diversus; 96-well plate, 37° C., 10 h
  MIC against C. diversus: 25 µg/mL
Klebsiella pneumonia; 96-well plate, 37° C., 10 h
  MIC against K. pneumonia: 25 µg/mL
Proteus vulgaris; 96-well plate, 37° C., 10 h
  MIC against P. vulgaris: 12.5 µg/mL
E. coli DH5α
  MIC: 50 µg/mL
Enterobacter cloacae; 96-well plate, 37° C., 10 h
  MIC against E. cloacae: 25 µg/mL

## PRT1140 (DVKDCLFLSCQDYGDCEDMVNNFRCICRPGFSGSLCE; listed as Homo sapiens)
Moraxella catarrhalis; [12]
  MIC M. catarrhalis: 50 µg/mL
E. coli BL21; [12]
  MIC E. coli BL21: 50 µg/mL
Serratia marcescens; [12]
  MIC S. marcescens: 100 µg/mL
Proteus mirabilis; [12]
  MIC P. mirabilis: 12.5 µg/mL
Aeromonas hydrophila; [12]
  MIC A. hydrophila: 50 µg/mL
Pseudomonas aeruginosa; [12]
  MIC P. aeruginosa: 12.5 µg/mL
Citrobacter diversus; [12]
  MIC C. diversus: 12.5 µg/mL
Klebsiella pneumonia; [12]
  MIC K. pneumonia: 50 µg/mL
Proteus vulgaris; [12]
  MIC P. vulgaris: 50 µg/mL
E. coli DH5α
  MIC: 25 µg/mL
Enterobacter cloacae; [12]
  MIC E. cloacae: 12.5 µg/mL
